Results as given in patent US20220098228A1, “METHODS AND COMPOSITIONS FOR IMPROVING THE IMMUNE SYSTEM AND PROVIDING IMMUNO-PROTECTION” (Natreon, Inc., priority 2020, published 2022).
Marks after values point to notes of the source that are not given here.

Columns and labels:
[1] = system: peritoneal macrophages; test: NBT reduction of peritoneal macrophages (Example III); format: in vivo, Swiss albino mice; details: for NBT reduction compared with vehicle control: cyclophosphamide, 3-OH-DBP 2 and 10 mg/kg, combined 12 mg/kg
Method: (§1) Male and female Swiss albino mice (n=8; 4 from each gender) weighing approximately 25±5 g, were obtained from National Research Institute of Ayurveda for Drug Development (Govt. of India), Kolkata, and were housed in polypropylene cages at 22±3° C., relative air humidity of 45 to 55%, with 12.00 h light & dark cycle (lighting on from 6:00 AM to 6:00 PM). […] The mice were acclimatized for one week in the laboratory conditions, before being used in the experiment. All experiments were conducted between 10.00 h and 14.00 h. Principles of laboratory animal care (NIH publication no. 85-23, revised 1985) was followed.
(§2) Cyclophosphamide was dissolved in distilled water and the mice were administered a single exposure (250 mg/kg, i.p.) on day 1.
(§3) 3-OH-DBP, 3,8-(OH)2-DBP, and combined 3-OH-DBP+3,8-(OH)2-DBP were administered once daily for 7 days starting from day 1. Following 7 days of treatment the mice were anaesthetized and sacrificed under anaesthesia followed by collection of peritoneal macrophages and spleen (for splenocyte isolation).
(§4) Swiss albino mice were randomly divided into 8 Groups (n=8; 4 from each gender). […] (2:10) (12 mg/kg b.w., p.o.), Group VI mice were administered 3-OH-DBP (10 mg/kg b.w., p.o.), Group VII mice were administered 3,8-(OH)2-DBP (50 mg/kg b.w., p.o.), Group VIII mice were administered [3-OH-DBP+3,8-(OH)2-DBP] (10:50) (60 mg/kg b.w., p.o.).
(§5) All the animals were sacrificed under ether anesthesia and peritoneal macrophages were lavaged using ice cold phosphate buffer saline (PBS: 0.15 M NaCl; pH: 7.4). After centrifugation (3000 rpm×10 min) at 4° C., pellets were re-suspended in PBS and cell viability was confirmed by trypan blue exclusion assay.
Preparation of NBT solution: 0.2% NBT (nitroblue tetrazolium) in PBS (pH 7.4), 5% dextrose and HBSS. These three solutions were mixed in 6:2:4 ratios.
0.5 ml of NBT solution was added to 0.5 ml of peritoneal macrophages (1×10^6 cells/ml) in micro-centrifuge tube. This mixture was incubated at 37° C. for 2 hours. The cell suspension was centrifuged at 2000 rpm for 10 minutes. Supernatants were discarded and pellets were re-suspended in 1 ml of DMSO. The tubes were kept in boiling water bath for 10 minutes and then cooled and centrifuged at 2000 rpm for 10 minutes. The supernatants were collected and absorbance was measured at 515 nm.
(§6) Results were expressed in terms of mean±SEM (n=8; 4 from each gender). Data were subjected to one way ANOVA followed by Tukey's test using GraphPad Prism 4.0 software to establish statistical significance (*p<0.05, **p<0.01, ***p<0.001, where * refers to comparison with Group I vehicle control; #p<0.05, ##p<0.01, ###p<0.001, where #refers to comparison with Group II cyclophosphamide administration; ^ap<0.05, ^aap<0.01, ^aap<0.01, where a refers to comparison of Day 7 with Day 0).

[2] = system: splenocytes; test: Cell viability of splenocytes, trypan blue exclusion, cyclophosphamide-induced immunosuppression (Example II); format: in vivo, Swiss albino mice; details: 10 mg/kg body weight p.o. 7 days + cyclophosphamide 250 mg/kg i.p.; Mean ± SD, n = 6
Method: (§7) The mice were acclimatized for one week in the laboratory conditions, before being used in the experiment. All experiments were conducted between 10.00 hr and 14.00 hr. Principles of laboratory animal care (NIH publication no. 85-23, revised 1985) were followed.
(§8) All test compounds (DBPs and DBP glycosides) were suspended in 0.3% of CMC (Carboxymethyl Cellulose) solutions of distilled water and were administered orally for 7 days by using an intubation canula. The volume of dose was 100 μl/10 g body weight. Cyclophosphamide was dissolved in distilled water and was injected (250 mg/kg, i.p.) on day one and volume of dose was 100 μl/10 g body weight. Control animals received equivalent volume of the vehicles CMC (0.3%) solutions only.
Spleen was collected. Single cell suspension was prepared by mincing and tapping the spleen fragments on stainless steel 200-mesh in ice cold phosphate buffer saline (PBS: 0.15M NaCl pH 7.4). Cell suspension was centrifuged at 2000 rpm for 10 minutes. The pellet was re-suspended in PBS and cell viability was confirmed by trypan blue exclusion method.

[3] = system: peritoneal macrophages; test: NBT reduction assay in peritoneal macrophages, cyclophosphamide-induced immunosuppression (Example II); format: in vivo, Swiss albino mice
Method: as §7, §8
On day seven all the animals were sacrificed under ether anesthesia and peritoneal macrophages were lavaged using ice cold phosphate buffer saline (PBS: 0.15M NaCl pH-7.4). After centrifugation (3000 rpm×10 min) at 4° C. the pellet was re-suspended in PBS and cell viability was confirmed by trypan blue exclusion method. (Bala A, Haldar P K, Kar B, Naskar S and Mazumder U K, “Carbon tetrachloride: A hepatotoxin causes oxidative stress in murine peritoneal macrophage and peripheral blood lymphocyte cells” Immunopharmacol. and Immunotoxicol. 34(1): 157-162 (2012)).
Preparation of NBT solution: 0.2% NBT (nitroblue tetrazolium) in PB (Phosphate Buffer, pH 7.4), 5% dextrose and HBSS (Hank's balanced salt solution). The three solutions were mixed in 6:2:4 ratios. (Saxena A K, Singh K P, Srivastava S N, Shukla L J and Shanker R., “Immunomodulating effects of caffeine in rodents” Ind J Exptl Biol. 22: 298-301 (1984)).
Method: 0.5 ml of NBT solution was added to 0.5 ml of peritoneal macrophages (1×10^6 cells/ml) in a micro-centrifuge tube. This mixture was incubated at 37° C. for 45 minutes. The cell suspension was centrifuged at 1500 rpm for 10 minutes. Supernatant was discarded and pellet was re-suspended in 2 ml of DMSO. The tubes were kept in a boiling water bath for 10 minutes. The tubes were again centrifuged at 1500 rpm for 10 minutes. The supernatant was collected, and absorbance was measured at 515 nm.

[4] = system: peritoneal macrophages; test: Peritoneal macrophage viability, trypan blue exclusion (Example III); format: in vivo, Swiss albino mice
Method: as §1, §2, §3, §4, §5, §6

[5] = system: splenocytes; test: Splenocyte viability, trypan blue exclusion (Example III); format: in vivo, Swiss albino mice; details: for % Viability Day7, splenocyte viability: Day 7
Method: as §1, §2, §3, §4
Spleens were collected and single cell suspension was prepared by mincing and tapping the spleen fragments on stainless steel 200-mesh in ice cold phosphate buffer saline (PBS: 0.15M NaCl; pH: 7.4). Cell suspensions were centrifuged at 2000 rpm for 10 minutes.
as §6

[6] = mouse, in vivo
Method: as §1, §2, §3, §4, §6

[7] = female mice, 2 mg/kg p.o. + cyclophosphamide 250 mg/kg i.p.
[8] = female mice, 10 mg/kg p.o. + cyclophosphamide 250 mg/kg i.p.
[9] = male mice, 2 mg/kg p.o. + cyclophosphamide 250 mg/kg i.p.
[10] = male mice, 10 mg/kg p.o. + cyclophosphamide 250 mg/kg i.p.
[11] = female mice, 3-OH-DBP 2 and 10 mg/kg, 3,8-(OH)2-DBP 10 and 50 mg/kg, combined 12 and 60 mg/kg
[12] = male mice, 3-OH-DBP 10 mg/kg, 3,8-(OH)2-DBP 50 mg/kg, combined 60 mg/kg

In the case of `O=c1oc2cc(O)ccc2c2ccccc12` [3-OH-DBP, 3-hydroxy-dibenzo-alpha-pyrone], the “NBT reduction compared with cyclophosphamide treated mice” value ([1]; female mice, 3-OH-DBP 10 mg/kg, 3,8-(OH)2-DBP 50 mg/kg, combined 12 and 60 mg/kg) is reported as “significantly (p<0.05, p<0.01, p<0.001) increased”, the “O.D. (515 nm) Day 7, NBT reduction of peritoneal macrophages” value [1, 7] is reported as 0.142 ± 0.005*** and the “O.D. (515 nm) Day 7, NBT reduction of peritoneal macrophages” value [1, 8] is reported as 0.207 ± 0.02**,##. For the same molecule, the “NBT reduction compared with vehicle control” value ([1]; female mice, 3,8-(OH)2-DBP 10 and 50 mg/kg) was “significantly (p<0.05, p<0.01, p<0.001) decreased”, the “O.D (515 nm) Day 7, NBT reduction of peritoneal macrophages” value [1, 9] was 0.257 ± 0.02338*** and the “O.D (515 nm) Day 7, NBT reduction of peritoneal macrophages” value [1, 10] was 0.232 ± 0.04097***. The “NBT reduction compared with vehicle control” value ([1]; male mice, 3,8-(OH)2-DBP 10 mg/kg) was “significantly (p<0.01, p<0.001) decreased”, the “% Cell Viability of splenocytes” value [2] was 59.70 ± 3.59% and the “OD (515 nm), NBT reduction assay in peritoneal macrophages” value ([3]; 10 mg/kg body weight p.o. 7 days + cyclophosphamide 250 mg/kg i.p., Mean ± SD, n = 6) was 0.154 ± 0.019. For the same molecule, the “improvement in NBT reduction capacity” value ([3]; 10 mg/kg body weight p.o., in comparison with cyclophosphamide treated mice) was “moderate (p<0.05) improvement”, the “peritoneal macrophage viability compared with cyclophosphamide treated mice” value [4, 11] was “significantly (p<0.05, p<0.01) increased” and the “% Viability Day 7, peritoneal macrophage viability” value [4, 7] was 62.53 ± 2.14** %. The “% Viability Day 7, peritoneal macrophage viability” value [4, 8] was 72.56 ± 2.01^# %, the “peritoneal macrophage viability compared with cyclophosphamide treated mice” value [4, 12] was “significantly (p<0.05, p<0.01) increased” and the “% Viability Day 7, peritoneal macrophage viability” value [4, 9] was 59.90 ± 0.51* %. For the same molecule, the “% Viability Day 7, peritoneal macrophage viability” value [4, 10] was 69.64 ± 2.77# %, the “peritoneal macrophage viability compared with vehicle control” value ([4]; male mice, cyclophosphamide, 3-OH-DBP 2 mg/kg, 3,8-(OH)2-DBP 10 mg/kg) was “significantly (p<0.05) decreased” and the “splenocyte viability compared with cyclophosphamide treated mice” value [5, 11] was “significantly (p<0.05, p<0.01, p<0.001) increased”. For the same molecule, the “% Viability Day7, splenocyte viability” value [5, 7] was 88.40 ± 1.61# %, the “% Viability Day7, splenocyte viability” value [5, 8] was 90.77 ± 1.77## % and the “splenocyte viability compared with cyclophosphamide treated mice” value [5, 12] was “significantly higher”. The “% Viability Day7, splenocyte viability” value [5, 9] was 69.34 ± 1.84*** %, the “% Viability Day7, splenocyte viability” value [5, 10] was 80.9 ± 1.24## % and the “splenocyte viability compared with vehicle control” value ([5]; male mice, cyclophosphamide, 2 mg/kg 3-OH-DBP, 10 mg/kg 3,8-(OH)2-DBP, 12 mg/kg combined) was “similarly decreased”. For the same molecule, the “feed intake Day 7 in comparison to Day 0” value [6] was “significantly (p<0.05, p<0.01) decreased”, the “feed intake compared to vehicle control” value [6] was “significantly (p<0.05, p<0.01) decreased” and the “water intake compared with cyclophosphamide treated mice” value [6] was “significantly (p<0.001) decreased”. The “water intake compared with vehicle control” value [6] was “significantly (p<0.001) decreased” and the “water intake compared with vehicle control and cyclophosphamide treated mice” value [6] was “significantly (p<0.05, p<0.001) decreased”.
